Experimental data as given in publication PMC3466219 (PLoS ONE, 2012).
Where “and” joins values, the source holds several entries; their conditions need not be identical. Equal values may be shown once. Read-outs that look alike come from different tables or passages of the source.

Columns and labels:
[1] = target: Tip60 (Homo sapiens, UniProt Q92993); experiment: In vitro HAT assay, Tip60; settings: for Tip60 inhibitory activity (in words): in vitro HAT assay; for inhibition at 100 µM: read-out: Tip60 % inhibition at 100 µM
Tip60, sequence (Q92993 whole entry): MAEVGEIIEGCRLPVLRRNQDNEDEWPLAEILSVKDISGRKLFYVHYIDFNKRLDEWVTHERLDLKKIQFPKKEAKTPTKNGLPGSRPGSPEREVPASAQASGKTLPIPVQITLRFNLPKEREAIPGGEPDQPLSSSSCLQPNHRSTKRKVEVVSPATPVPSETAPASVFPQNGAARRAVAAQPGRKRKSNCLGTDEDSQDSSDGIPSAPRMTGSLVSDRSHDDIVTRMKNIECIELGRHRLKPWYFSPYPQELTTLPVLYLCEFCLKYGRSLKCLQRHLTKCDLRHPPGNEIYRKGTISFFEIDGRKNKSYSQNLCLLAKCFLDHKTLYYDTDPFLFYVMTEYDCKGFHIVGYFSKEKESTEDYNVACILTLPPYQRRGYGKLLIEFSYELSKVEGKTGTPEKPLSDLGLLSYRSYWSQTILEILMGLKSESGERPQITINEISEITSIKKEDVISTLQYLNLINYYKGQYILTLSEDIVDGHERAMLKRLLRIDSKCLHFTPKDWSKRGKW

[2] = target: GCN5 (Homo sapiens, UniProt Q92830); experiment: In vitro HAT assay, GCN5; format: biochemical
GCN5, sequence (Q92830 whole entry, species assumed): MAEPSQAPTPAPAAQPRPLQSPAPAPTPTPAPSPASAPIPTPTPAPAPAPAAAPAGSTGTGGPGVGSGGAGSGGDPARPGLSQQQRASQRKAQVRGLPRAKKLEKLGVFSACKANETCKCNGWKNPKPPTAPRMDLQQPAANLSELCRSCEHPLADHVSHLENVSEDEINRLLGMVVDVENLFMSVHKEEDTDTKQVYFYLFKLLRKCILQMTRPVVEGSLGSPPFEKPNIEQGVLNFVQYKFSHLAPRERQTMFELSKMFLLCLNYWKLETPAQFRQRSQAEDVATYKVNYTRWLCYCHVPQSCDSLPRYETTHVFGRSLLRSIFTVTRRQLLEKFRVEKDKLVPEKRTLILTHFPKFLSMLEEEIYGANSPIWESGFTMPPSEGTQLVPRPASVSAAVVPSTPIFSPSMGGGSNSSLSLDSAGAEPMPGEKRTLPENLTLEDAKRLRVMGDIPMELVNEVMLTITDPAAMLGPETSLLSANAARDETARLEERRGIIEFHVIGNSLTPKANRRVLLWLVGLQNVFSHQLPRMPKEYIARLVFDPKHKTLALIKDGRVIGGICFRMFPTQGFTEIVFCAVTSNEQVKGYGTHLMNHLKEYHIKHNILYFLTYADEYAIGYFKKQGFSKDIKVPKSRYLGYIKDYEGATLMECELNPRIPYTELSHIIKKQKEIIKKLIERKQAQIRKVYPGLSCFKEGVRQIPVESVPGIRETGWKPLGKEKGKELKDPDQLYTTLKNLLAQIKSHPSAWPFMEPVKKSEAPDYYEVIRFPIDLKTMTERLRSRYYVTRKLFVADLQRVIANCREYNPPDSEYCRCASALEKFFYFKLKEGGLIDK
Method: (§1) Assays were performed in quadruplicate.

[3] = target: T1, p300 (Homo sapiens, UniProt Q09472); experiment: In vitro HAT assay, p300; format: biochemical; settings: individual IC50 values
T1 sequence (Q09472 1287-1663 limits assumed): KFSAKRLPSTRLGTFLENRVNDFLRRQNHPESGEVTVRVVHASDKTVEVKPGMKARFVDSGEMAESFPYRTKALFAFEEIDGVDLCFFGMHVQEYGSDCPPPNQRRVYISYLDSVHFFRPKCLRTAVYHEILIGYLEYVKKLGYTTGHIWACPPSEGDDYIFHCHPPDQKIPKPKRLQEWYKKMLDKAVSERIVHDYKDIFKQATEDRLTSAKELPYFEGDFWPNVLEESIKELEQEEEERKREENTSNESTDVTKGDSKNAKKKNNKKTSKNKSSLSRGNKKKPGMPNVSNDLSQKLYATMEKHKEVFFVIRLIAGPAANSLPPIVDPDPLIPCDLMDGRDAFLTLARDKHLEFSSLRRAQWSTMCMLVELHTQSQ
Method: as §1
(§2) Purification of recombinant HAT enzymes (GST-tagged)- Expression constructs, pGEX-p300 and pGEX-PCAF, obtained from Dr Andrew Bannister (Cambridge Cancer Centre, UK), were transformed into XA90 Escherichia coli cells. A single colony was selected and grown to an OD 0.5 IPTG (1 mM) induction was carried out for 4 hours then cell pellets were collected, lysed, and sonicated. Supernatants were then passed through glutathione Sepharose 4B (GE Healthcare) and purified protein was eluted with 50 mM Tris-HCl, 10 mM reduced glutathione, pH 8. Eluted fractions were tested for enzymatic activity by HAT assay.

[4] = target: T2, PCAF (Homo sapiens, UniProt Q92831); experiment: In vitro HAT assay, PCAF; format: biochemical; settings: individual IC50 values
T2 construct: GST; made in house; host or cells: XA90 Escherichia coli
T2 sequence (Q92831 whole entry, species assumed): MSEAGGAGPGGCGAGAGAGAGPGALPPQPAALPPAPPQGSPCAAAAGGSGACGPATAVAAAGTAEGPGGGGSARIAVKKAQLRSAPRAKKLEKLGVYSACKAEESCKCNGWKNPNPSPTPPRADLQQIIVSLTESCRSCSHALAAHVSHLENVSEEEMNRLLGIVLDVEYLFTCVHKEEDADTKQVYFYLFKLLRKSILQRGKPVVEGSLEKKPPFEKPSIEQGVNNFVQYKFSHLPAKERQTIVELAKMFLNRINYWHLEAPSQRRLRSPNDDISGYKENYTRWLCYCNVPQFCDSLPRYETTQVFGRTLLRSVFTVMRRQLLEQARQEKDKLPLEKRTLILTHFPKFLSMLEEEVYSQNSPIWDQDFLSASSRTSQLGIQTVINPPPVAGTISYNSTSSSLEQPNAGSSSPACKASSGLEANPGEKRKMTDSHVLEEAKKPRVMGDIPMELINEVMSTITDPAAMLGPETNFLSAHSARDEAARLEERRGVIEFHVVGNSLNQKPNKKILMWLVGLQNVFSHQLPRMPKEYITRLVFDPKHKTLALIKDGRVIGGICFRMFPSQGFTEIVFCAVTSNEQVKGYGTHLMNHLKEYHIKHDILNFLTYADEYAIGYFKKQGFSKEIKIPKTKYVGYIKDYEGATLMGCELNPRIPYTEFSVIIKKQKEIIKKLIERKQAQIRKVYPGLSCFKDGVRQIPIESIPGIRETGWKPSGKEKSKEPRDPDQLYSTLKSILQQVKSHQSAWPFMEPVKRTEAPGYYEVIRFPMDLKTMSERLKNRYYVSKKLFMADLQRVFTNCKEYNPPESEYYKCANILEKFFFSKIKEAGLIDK
Method: as §1, §2

[5] = tested on: acetylated histone H4K16, H3K14 and H4K8 in LNCaP cells; experiment: Western blotting of histone acetylation in LNCaP cells; settings: Western blot
[6] = tested on: Tip60 levels in LNCaP cells; format: cell-based; settings: increasing concentrations, 24 hours, Western blot
Description: Representative blots are shown for duplicate experiments.

Question: How did the “Tip60 inhibitory activity (in words)” value [1] turn out when Cc1cnsc1Br [Compound 1, 4-Methyl-5-bromoisothiazole] was run?
Answer: The value was “inactive”.

Question: And the inhibition at 100 µM [1]?
Answer: Its inhibition at 100 µM is 14%.

Question: How did the inhibition at 100 µM [1] turn out when Cc1cnsc1SC#N [Compound 4, 4-Methyl-5-thiocyanatoisothiazole] was run?
Answer: Its inhibition at 100 µM is 46%.

Question: With c1ccc(SSc2ccccc2)cc1 [Diphenyl disulphide] as the compound, how does the inhibition at 100 µM [1] read?
Answer: The inhibition at 100 µM was 4%.

Question: How did the IC50 [2] turn out when Cc1cnsc1SSc1sncc1C [Compound 5, 1,2-Bis(4-methylisothiazol-5-yl)disulfane] was run?
Answer: Its IC50 is over 100 µM.

Question: And the IC50 [3]?
Answer: The IC50 was 58 µM and 43 µM.

Question: And the IC50 [1]?
Answer: Its IC50 is 4 µM.

Question: And the IC50 [4]?
Answer: Its IC50 is 33 µM and 25 µM.

Question: Cc1ccsc1Br [2-Bromo-3-methylthiophene] was tested. Which IC50 [1] did it give?
Answer: The IC50 was over 100 µM.

Question: And the “Tip60 inhibitory activity (in words)” value [1]?
Answer: Its value is “inactive”.

Question: For c1cc(CCc2ccncc2)ccn1 [1,2-bis(4-pyridyl)ethane], which “levels of acetylated histone H4K16, H3K14 and H4K8” value ([5]; increasing concentrations for 2 hours, then TSA 2 µM for a further 4 hours) is on record?
Answer: The value was “did not affect”.

Question: And the Tip60 levels [6]?
Answer: The Tip60 levels was “unaffected”.

Question: c1ccc(SSc2ccccn2)nc1 [2,2′-Dithiodipyridine] was tested. Which IC50 ([1]; Tip60 IC50, in vitro HAT assay, 3H acetyl-CoA, histones as substrates, individual IC50 values) did it give?
Answer: Its IC50 is 62 µM and 87 µM.

Question: For c1cc(SSc2ccncc2)ccn1 [4,4′-Dithiodipyridine], which IC50 [1] is on record?
Answer: Its IC50 is 48 µM.

Question: Which inhibition at 100 µM [1] does the source give for c1ccc2sc(SSc3nc4ccccc4s3)nc2c1 [2,2′-Dithio(bis)benzothiazole] here?
Answer: The inhibition at 100 µM was 25%.

Question: For N#CSc1ccns1 [Compound 6, 5-Thiocyanatoisothiazole], which inhibition at 100 µM [1] is on record?
Answer: The inhibition at 100 µM was 27%.

Question: How did the “acetylation at H4K8, H4K16 and H3K14” value ([5]; TSA alone 2 µM, 6 hours) turn out when CC(/C=C/C(=O)NO)=C\[C@@H](C)C(=O)c1ccc(N(C)C)cc1 [TSA, trichostatin A] was run?
Answer: The value was “acetylation was increased”.

Question: Cc1cnsc1 [Compound 11, 4-Methylisothiazole] was tested. Which inhibition at 100 µM [1] did it give?
Answer: The inhibition at 100 µM was 22%.
